Results as given in PMC5435364 (PLoS Pathogens, 2017).

Tested on: Qa-1
Assay: Qa-1/peptide binding assay (flow cytometry-based competition with biotinylated Qdm)
Set-up: species or system mouse
Conditions: Qa-1 transfected HeLa cells, 0.5 μM biotinylated Qdm + 5 or 10 μM unlabeled competing peptide, 1.5 hours at 4°C, Fig 2A

Question: For OT-I: negative control OT-I peptide, which “Competition with bio-Qdm for binding to Qa-1 (decrease in streptavidin-APC staining)” value is on record?
Answer: unable to do so
